Results: patent US20140308317A1, “Polymeric Compounds And Methods Of Making And Using The Same” (CELLCEUTIX CORPORATION, priority 2012, published 2014)
≈ marks a conversion by molar mass, not a printed value.

What was measured:
[1] = test system: Enterococcus faecalis ATCC 29212; assay: Minimum Inhibitory Concentration (MIC), modified microbroth dilution; type: cell-based; details: E. faecalis (29212); overnight incubation (18 hours)
[2] = test system: Staphylococcus aureus ATCC 27660; assay: as above; type: cell-based; details: S. aureus (27660); overnight incubation (18 hours)
[3] = test system: Klebsiella pneumoniae ATCC 13883; assay: as above; type: cell-based; details: K. pneumoniae (13883); overnight incubation (18 hours)
E. Coli ATCC 25922 = assay: as above; type: cell-based; details: E. coli (25922); overnight incubation (18 hours)
HepG2, HB-8065 = assay: Cytotoxicity colorimetric (tetrazolium) assay; type: cell-based, human; details: HepG2 cells; one hour with compound in serum-free media
How it was run: (§1)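 HepG2 (MEM, 10% FBS) and NIH/3T3 (DMEM, 10% BCS) monolayers seeded at 2×10^4 cells/well 24 h before use, then exposed to compounds for one hour in serum-free medium. After return to serum-containing medium, viable cells read by tetrazolium bioreduction to formazan. EC50 in μg/mL from four-parameter logistic fit.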

[4] = test system: Pseudomonas aeruginosa ATCC 10145; assay: Minimum Inhibitory Concentration (MIC), modified microbroth dilution; type: cell-based; details: P. aeruginosa (10145); overnight incubation (18 hours)
NIH/3T3 cells, CRL-1658 = assay: Cytotoxicity colorimetric (tetrazolium) assay; type: cell-based, mouse; details: NIH/3T3 cells; one hour with compound in serum-free media
How it was run: as §1

Row | Compound | MIC50 E. faecalis [1] | MIC50 S. aureus [2] | MIC50 K. Pnuemnoiae [3] | MIC50 E. coli (E. Coli ATCC 25922) | EC50 HepG2 (cytotoxicity) (HepG2, HB-8065) | MIC50 P. Aeruginosa [4] | EC50 NIH 3T3 (cytotoxicity) (NIH/3T3 cells, CRL-1658)
1 | NCCCOc1cc(OCCCN)cc(-c2ccc(F)c(-c3cc(-c4cc(OCCCN)cc(OCCCN)c4)ccc3F)c2)c1 [Compound 145] | 0.78 to 1.56 µg/mL | 1.56 µg/mL (≈ 2.46 µM) | 1.56 to 3.13 µg/mL | 1.56 to 3.13 µg/mL | 302 µg/mL (≈ 476 µM) | 12.5 µg/mL (≈ 19.7 µM) | 146.3 µg/mL (≈ 230 µM)
2 | CCn1c2ccc(-c3cc(C(=O)NCCN)cc(C(=O)NCCN)c3)cc2c2cc(-c3cc(C(=O)NCCN)cc(C(=O)NCCN)c3)ccc21 [Compound 169] | >50 µg/mL | 3.13 µg/mL (≈ 4.52 µM) | >50 µg/mL | 25 µg/mL (≈ 36.1 µM) | 312 µg/mL (≈ 451 µM) | >50 µg/mL | 450 µg/mL (≈ 650 µM)
3 | NCCNC(=O)c1cc(C(=O)NCCN)cc(-c2ccc3oc4ccc(-c5cc(C(=O)NCCN)cc(C(=O)NCCN)c5)cc4c3c2)c1 [Compound 168] | >50 µg/mL | 3.13 µg/mL (≈ 4.71 µM) | >50 µg/mL | >50 µg/mL | 72.6 µg/mL (≈ 109 µM) | >50 µg/mL | 32.4 µg/mL (≈ 48.7 µM)
4 | NCCc1cccc(-c2ccc3c(c2)C(=O)c2cc(-c4cccc(CCN)c4)ccc2CC3)c1 [Compound 153] | 3.13 µg/mL (≈ 7.01 µM) | 1.56 µg/mL (≈ 3.49 µM) | 6.25 µg/mL (≈ 14 µM) | 6.25 µg/mL (≈ 14 µM) | 80.6 µg/mL (≈ 180 µM) | 25 µg/mL (≈ 56 µM) | 53.3 µg/mL (≈ 119 µM)
5 | NCCCOc1cc(OCCCN)cc(-c2cc(-c3cc(-c4cc(OCCCN)cc(OCCCN)c4)cc(C(F)(F)F)c3)cc(C(F)(F)F)c2)c1 [Compound 146] | 0.78 to 1.56 µg/mL | 1.56 µg/mL (≈ 2.12 µM) | 1.56 to 3.13 µg/mL | 1.56 to 3.13 µg/mL | 58.6 µg/mL (≈ 79.8 µM) | 6.25 µg/mL (≈ 8.51 µM) | 35.82 µg/mL (≈ 48.7 µM)
6 | N=C(N)NCCCc1cccc(-c2cc(-c3cccc(CCCNC(=N)N)c3)cc(C(F)(F)F)c2)c1 [Compound 114] | 1.56 µg/mL (≈ 3.14 µM) | 0.78 µg/mL (≈ 1.57 µM) | 3.13 µg/mL (≈ 6.3 µM) | 3.13 µg/mL (≈ 6.3 µM) | 60.6 µg/mL (≈ 122 µM) | 12.5 µg/mL (≈ 25.2 µM) | 83.5 µg/mL (≈ 168 µM)
7 | NCCCN(CCCN)Cc1cccc(-c2ccc3sc4ccc(-c5cccc(CN(CCCN)CCCN)c5)cc4c3c2)c1 [Compound 181] | 6.25 µg/mL (≈ 10 µM) | 0.195 µg/mL (≈ 0.313 µM) | 6.25 µg/mL (≈ 10 µM) | 3.13 µg/mL (≈ 5.02 µM) | 212 µg/mL (≈ 340 µM) | 6.25 µg/mL (≈ 10 µM) | 83.1 µg/mL (≈ 133 µM)
8 | NCCN(CCN)Cc1cccc(-c2ccc3sc4ccc(-c5cccc(CN(CCN)CCN)c5)cc4c3c2)c1 [Compound 174] | 3.13 µg/mL (≈ 5.52 µM) | 0.195 µg/mL (≈ 0.344 µM) | 3.13 µg/mL (≈ 5.52 µM) | 3.13 µg/mL (≈ 5.52 µM) | 171 µg/mL (≈ 302 µM) | 3.13 µg/mL (≈ 5.52 µM) | 149 µg/mL (≈ 263 µM)
9 | Nc1cccc(-c2ccc3[nH]c4ccc(-c5cccc(N)c5)cc4c3c2)c1 [Compound 177] | >50 µg/mL | 1.56 µg/mL (≈ 4.46 µM) | >50 µg/mL | 1.56 µg/mL (≈ 4.46 µM) | >1000 µg/mL | 12.5 µg/mL (≈ 35.8 µM) | 487 µg/mL (≈ 1390 µM)
